For assay [1], the target named is T1, human CGT (ceramide galactosyltransferase), CHO/CGT lysate (Homo sapiens, UniProt Q16880).
T1 construct: Full-length human CGT cDNA was cloned into the BamH1/Xho1 site of pcDNA3.1 (+); expressed in transfected cells; host or cells: Chinese hamster ovary (CHO) cells; lysate prepared with M-PER
T1 sequence (Q16880 21-541): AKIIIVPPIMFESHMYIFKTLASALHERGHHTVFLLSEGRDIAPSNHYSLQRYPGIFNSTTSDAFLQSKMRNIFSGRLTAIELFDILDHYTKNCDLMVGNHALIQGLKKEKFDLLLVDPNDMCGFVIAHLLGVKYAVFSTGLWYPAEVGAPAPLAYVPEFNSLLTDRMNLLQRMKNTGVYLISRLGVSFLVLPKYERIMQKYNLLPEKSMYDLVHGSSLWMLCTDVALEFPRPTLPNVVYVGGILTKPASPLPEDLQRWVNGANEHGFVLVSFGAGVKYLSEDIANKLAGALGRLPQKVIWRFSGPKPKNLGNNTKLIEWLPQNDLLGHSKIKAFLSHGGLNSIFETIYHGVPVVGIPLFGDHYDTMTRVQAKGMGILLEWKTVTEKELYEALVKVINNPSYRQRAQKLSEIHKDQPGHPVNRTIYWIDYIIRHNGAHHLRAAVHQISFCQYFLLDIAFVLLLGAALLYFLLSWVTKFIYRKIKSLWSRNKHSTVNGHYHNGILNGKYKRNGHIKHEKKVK
The experiment in a line: CGT enzyme assay, RapidFire/MS/MS readout with 0.01% Tween added (Table 1 ranges with two asterisks **). The class given is biochemical. In outline:
(§1)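 IC50s come from variable-slope dose-response fits of internal-standard-normalized C6-NBD-dihydro-galactosylceramide, measured by RapidFire/MS/MS (ESI negative). Reactions: 1 h, 37 °C, human CGT-expressing CHO lysate (4 μg), 0.001–50 μM compound, 10 μM NBD-dihydro-ceramide, 17.5 μM UDP-galactose, 0.5% DMSO, pH 7.2; 0.01% Tween 80 added for ** values.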

The target in assay [2] is T1, human CGT (ceramide galactosyltransferase), CHO/CGT lysate. The experiment in a line: CGT enzyme assay, RapidFire/MS/MS readout (Table 1 ranges with one asterisk *). It is filed as biochemical. Particulars: RapidFire method (range with one asterisk *). In outline: as §1
Where [3] appears, read: CGT enzyme assay, RapidFire/MS/MS method with 0.01% Tween added (range with two asterisks **).
[4] abbreviates: CGT enzymatic assay, range with two asterisks (**): RapidFire/MS/MS method with 0.01% Tween added.

pIC50: −log10 of the molar value. Structures can show the parent of a compound that is named as a salt. A value given as a limit tells only on which side of the number the result lay.

On to `NC1CC2CCC(C1)N2C(=O)[C@@H](NS(=O)(=O)c1ccc2cc(OC3CCCC3)ccc2c1)C(F)(F)c1ccc(-c2ccc(Cl)cc2)cc1` (stereo partly drawn) [Compound 48-1, N-((2R)-3-(3-amino-8-azabicyclo[3.2.1]octan-8-yl)-1-(4′-chloro-[1,1′-biphenyl]-4-yl)-1,1-difluoro-3-oxopropan-2-yl)-6-(cyclopentyloxy)naphthalene-2-sulfonamide trifluoroacetate], for which the pIC50 in assay [1] (setting [3]) and in assay [2] was above 6.00 each time. For `NC1CC2CCC(C1)N2C(=O)[C@H](NS(=O)(=O)c1ccc2cc(OC3CCCC3)ccc2c1)C(F)(F)c1ccc(-c2ccc(Cl)cc2)cc1` (stereo partly drawn) [Compound 48-2, N-((2S)-3-(3-amino-8-azabicyclo[3.2.1]octan-8-yl)-1-(4′-chloro-[1,1′-biphenyl]-4-yl)-1,1-difluoro-3-oxopropan-2-yl)-6-(cyclopentyloxy)naphthalene-2-sulfonamide trifluoroacetate], the pIC50 in assay [1] (setting [3]) and in assay [2] was 5.00 to 6.00 each time. For the compound `NC1CCN(C(=O)[C@@H](NS(=O)(=O)c2ccc3cc(OC4CCCC4)ccc3c2)C(F)(F)c2ccc(-c3ccc(Cl)cc3)cc2)CC1` [Compound 91-1, (R)—N-(3-(4-aminopiperidin-1-yl)-1-(4′-chloro-[1,1′-biphenyl]-4-yl)-1,1-difluoro-3-oxopropan-2-yl)-6-(cyclopentyloxy)naphthalene-2-sulfonamide trifluoroacetate], the negative logarithm of the IC50 (pIC50) in assay [1] (setting [3]) and in assay [2] was above 6.00 throughout. Consider `NC1CCN(C(=O)[C@H](NS(=O)(=O)c2ccc3cc(OC4CCCC4)ccc3c2)C(F)(F)c2ccc(-c3ccc(Cl)cc3)cc2)CC1` [Compound 91-2, (S)—N-(3-(4-aminopiperidin-1-yl)-1-(4′-chloro-[1,1′-biphenyl]-4-yl)-1,1-difluoro-3-oxopropan-2-yl)-6-(cyclopentyloxy)naphthalene-2-sulfonamide trifluoroacetate], for which the pIC50 in assay [1] (setting [3]) and in assay [2] was 5.00 to 6.00 throughout. As for `NC1CCN(C(=O)[C@@H](NS(=O)(=O)c2ccc(OCC3CCCCC3)cc2)C(F)(F)c2ccc(-c3ccc(Cl)cc3)cc2)CC1` [Compound 96-1, (R)—N-(3-(4-aminopiperidin-1-yl)-1-(4′-chloro-[1,1′-biphenyl]-4-yl)-1,1-difluoro-3-oxopropan-2-yl)-4-(cyclohexylmethoxy)benzenesulfonamide trifluoroacetate], the pIC50 in assay [1] (setting [3]) and in assay [2] was 5.00 to 6.00 each time. For the compound `NC1CCN(C(=O)[C@H](NS(=O)(=O)c2ccc(OCC3CCCCC3)cc2)C(F)(F)c2ccc(-c3ccc(Cl)cc3)cc2)CC1` [Compound 96-2, (S)—N-(3-(4-aminopiperidin-1-yl)-1-(4′-chloro-[1,1′-biphenyl]-4-yl)-1,1-difluoro-3-oxopropan-2-yl)-4-(cyclohexylmethoxy) benzenesulfonamide trifluoroacetate], the pIC50 in assay [1] (setting [3]) and in assay [2] was 4.00 to 4.52 throughout. In the case of `NC1CC2CCC(C1)N2C(=O)[C@@H](NC(=O)[C@@H](O)c1ccc2cc(OC3CCCC3)ccc2c1)C(F)(F)c1ccc(-c2ccc(Cl)cc2)cc1` (stereo partly drawn) [Compound 136-3, (2S)—N-((2R)-3-(3-amino-8-azabicyclo[3.2.1]octan-8-yl)-1-(4′-chloro-[1,1′-biphenyl]-4-yl)-1,1-difluoro-3-oxopropan-2-yl)-2-(6-(cyclopentyloxy)naphthalen-2-yl)-2-hydroxyacetamide trifluoroacetate], the pIC50 in assay [1] (setting [3]) and in assay [2] was 5.00 to 6.00 each time.

Consider `O=C([C@H](NS(=O)(=O)c1ccc(OCC2CCCCC2)cc1)C(F)(F)c1ccc(-c2ccc(Cl)cc2)cc1)N1CC[C@H]2CNC[C@H]21` [Compound 195-4, N-((S)-1-(4′-chloro-[1,1′-biphenyl]-4-yl)-1,1-difluoro-3-((3aS,6aS)-hexahydropyrrolo[3,4-b]pyrrol-1(2H)-yl)-3-oxopropan-2-yl)-4-(cyclohexylmethoxy)benzenesulfonamide], for which, in assay [1] (setting [4]), the negative logarithm of the IC50 (pIC50) is 4.00 to 4.52. On the same count and under the same terms, to `NC1CCN(C(=O)[C@@H](NS(=O)(=O)c2ccc(OCC3CCCCC3)cc2)C(F)(F)c2ccc(C3(C(F)(F)F)CC3)cc2)CC1` [Compound 196-1, (R)-N-(3-(4-aminopiperidin-1-yl)-1,1-difluoro-3-oxo-1-(4-(1-(trifluoromethyl)cyclopropyl)phenyl)propan-2-yl)-4-(cyclohexylmethoxy)benzenesulfonamide] belongs 5.00 to 6.00; to `NC1CCN(C(=O)[C@H](NS(=O)(=O)c2ccc(OCC3CCCCC3)cc2)C(F)(F)c2ccc(C3(C(F)(F)F)CC3)cc2)CC1` [Compound 196-2, (S)-N-(3-(4-aminopiperidin-1-yl)-1,1-difluoro-3-oxo-1-(4-(1-(trifluoromethyl)cyclopropyl)phenyl)propan-2-yl)-4-(cyclohexylmethoxy)benzenesulfonamide], 4.52 to 5.00. On the same count and under the same terms, to `COc1cc(C(F)(F)[C@H](NS(=O)(=O)c2ccc3cc(OC4CCCC4)ccc3c2)C(=O)N2C[C@H]3CNC[C@H]3C2)ccc1-c1ccc(Cl)cc1` [Compound 197-1, N-((R)-1-(4′-chloro-2-methoxy-[1,1′-biphenyl]-4-yl)-1,1-difluoro-3-((3aR,6aS)-hexahydropyrrolo[3,4-c]pyrrol-2(1H)-yl)-3-oxopropan-2-yl)-6-(cyclopentyloxy)naphthalene-2-sulfonamide] belongs above 6.00; to `COc1cc(C(F)(F)[C@@H](NS(=O)(=O)c2ccc3cc(OC4CCCC4)ccc3c2)C(=O)N2C[C@H]3CNC[C@H]3C2)ccc1-c1ccc(Cl)cc1` [Compound 197-2, N-((S)-1-(4′-chloro-2-methoxy-[1,1′-biphenyl]-4-yl)-1,1-difluoro-3-((3aR,6aS)-hexahydropyrrolo[3,4-c]pyrrol-2(1H)-yl)-3-oxopropan-2-yl)-6-(cyclopentyloxy)naphthalene-2-sulfonamide], 4.52 to 5.00; to `NC1CCN(C(=O)[C@@H](NS(=O)(=O)c2ccc(OCC3CCCCC3)cc2)C(F)(F)c2ccc3c(c2)oc2cc(Cl)ccc23)CC1` [Compound 198-1, (R)-N-(3-(4-aminopiperidin-1-yl)-1-(7-chlorodibenzo[b,d]furan-3-yl)-1,1-difluoro-3-oxopropan-2-yl)-4-(cyclohexylmethoxy)benzenesulfonamide], 5.00 to 6.00. As to `NC1CCN(C(=O)[C@H](NS(=O)(=O)c2ccc(OCC3CCCCC3)cc2)C(F)(F)c2ccc3c(c2)oc2cc(Cl)ccc23)CC1` [Compound 198-2, (S)-N-(3-(4-aminopiperidin-1-yl)-1-(7-chlorodibenzo[b,d]furan-3-yl)-1,1-difluoro-3-oxopropan-2-yl)-4-(cyclohexylmethoxy)benzenesulfonamide], the negative-log IC50 (pIC50) in assay [1] (setting [4]) was 4.00 to 4.52.

By pIC50 is commonly meant the negative decadic logarithm of the IC50, by convention in mol/L. Higher therefore signals a low IC50.

For the origin of these results see patent US20190322676A1, “CERAMIDE GALACTOSYLTRANSFERASE INHIBITORS FOR THE TREATMENT OF DISEASE” (BioMarin Pharmaceutical Inc., priority 2016, published 2019).
